Active and inactive are the calls of the source. How the calls were made is not given here.
System: CCRIS mutagenicity, Ames/micronucleus/aberration tests
Assay: CCRIS mutagenicity studies
[1] = Test System: AMES SALMONELLA TYPHIMURIUM, Strain/Indicator: TA98, Metabolic Activation: NONE, Method: STANDARD PLATE
[2] = Test System: AMES SALMONELLA TYPHIMURIUM, Strain/Indicator: TA98, Metabolic Activation: RAT, LIVER, S-9, AROCLOR 1254, Method: STANDARD PLATE
[3] = Test System: AMES SALMONELLA TYPHIMURIUM, Strain/Indicator: TA100, Metabolic Activation: NONE, Method: STANDARD PLATE
[4] = Test System: AMES SALMONELLA TYPHIMURIUM, Strain/Indicator: TA100, Metabolic Activation: RAT, LIVER, S-9, AROCLOR 1254, Method: STANDARD PLATE
[5] = Test System: AMES SALMONELLA TYPHIMURIUM, Strain/Indicator: TA1535, Metabolic Activation: RAT, LIVER, S-9, AROCLOR 1254, Method: STANDARD PLATE

Cc1ccc([N+](=O)[O-])cc1N=[N+]([O-])c1cc([N+](=O)[O-])ccc1C
mutagenic call (Test System: AMES SALMONELLA TYPHIMURIUM, Strain/Indicator: TA98, Metabolic Activation: NONE, Method: SUSPENSION/PLATE): inactive; negative | mutagenic call (Test System: AMES SALMONELLA TYPHIMURIUM, Strain/Indicator: TA98, Metabolic Activation: RAT, LIVER, S-9, PHENOBARBITAL AND 5,6-BENZOFLAVONE, Method: SUSPENSION/PLATE): inactive; negative | mutagenic call (Test System: AMES SALMONELLA TYPHIMURIUM, Strain/Indicator: TA100, Metabolic Activation: NONE, Method: SUSPENSION/PLATE): inactive; negative | mutagenic call (Test System: AMES SALMONELLA TYPHIMURIUM, Strain/Indicator: TA100, Metabolic Activation: RAT, LIVER, S-9, PHENOBARBITAL AND 5,6-BENZOFLAVONE, Method: SUSPENSION/PLATE): inactive; negative

O=[N+]([O-])c1cc(NS(=O)(=O)c2cccc3cccnc23)ccc1Cl
mutagenic call [1]: inactive; negative | mutagenic call [2]: inactive; negative | mutagenic call [3]: inactive; negative | mutagenic call [4]: inactive; negative | mutagenic call (Test System: AMES SALMONELLA TYPHIMURIUM, Strain/Indicator: TA1535, Metabolic Activation: NONE, Method: STANDARD PLATE): inactive; negative | mutagenic call [5]: inactive; negative | mutagenic call (Test System: AMES SALMONELLA TYPHIMURIUM, Strain/Indicator: TA1537, Metabolic Activation: NONE, Method: STANDARD PLATE): inactive; negative | mutagenic call (Test System: AMES SALMONELLA TYPHIMURIUM, Strain/Indicator: TA1537, Metabolic Activation: RAT, LIVER, S-9, AROCLOR 1254, Method: STANDARD PLATE): inactive; negative

Nc1ccc2ccccc2c1
mutagenic call (Test System: AMES SALMONELLA TYPHIMURIUM, Strain/Indicator: TA98(1,8-DNP6), Metabolic Activation: PLANT CELLS, Method: PREINCUBATION): inactive; negative | mutagenic call (Test System: AMES SALMONELLA TYPHIMURIUM, Strain/Indicator: TA98, Metabolic Activation: HAMSTER, LIVER, S-9, AROCLOR 1254 (30%), Method: PREINCUBATION): active; positive | mutagenic call (Test System: AMES SALMONELLA TYPHIMURIUM, Strain/Indicator: TA98, Metabolic Activation: HUMAN, RED BLOOD CELL, CYTOSOL, Method: PREINCUBATION): active; positive | mutagenic call (Test System: AMES SALMONELLA TYPHIMURIUM, Strain/Indicator: TA98, Metabolic Activation: MOUSE, LIVER, S-9, PHENOBARBITAL AND BETA-NAPHTHOFLAVONE, Method: STANDARD PLATE): active; positive | mutagenic call (Test System: AMES SALMONELLA TYPHIMURIUM, Strain/Indicator: TA98, Metabolic Activation: MOUSE, LIVER, S-9, PHENOBARBITAL, BETA-NAPHTHOFLAVONE, ISOSAFROLE, ETHANOL, PREGNENOLONE AND 16ALPHA-CARBONITRILE, Method: STANDARD PLATE): active; positive | mutagenic call (Test System: AMES SALMONELLA TYPHIMURIUM, Strain/Indicator: TA98, Metabolic Activation: NONE, Method: PREINCUBATION): inactive; negative | mutagenic call [1]: inactive; negative | mutagenic call (Test System: AMES SALMONELLA TYPHIMURIUM, Strain/Indicator: TA98, Metabolic Activation: PLANT CELLS, Method: PREINCUBATION): inactive; negative | mutagenic call (Test System: AMES SALMONELLA TYPHIMURIUM, Strain/Indicator: TA98, Metabolic Activation: RAT, LIVER, S-9, AROCLOR 1254 (2%), Method: STANDARD PLATE): active; positive | mutagenic call (Test System: AMES SALMONELLA TYPHIMURIUM, Strain/Indicator: TA98, Metabolic Activation: RAT, LIVER, S-9, AROCLOR 1254 (30%), Method: PREINCUBATION): active; positive | mutagenic call [2]: inactive; negative | mutagenic call (Test System: AMES SALMONELLA TYPHIMURIUM, Strain/Indicator: TA98, Metabolic Activation: RAT, LIVER, S-9, KANECHLOR 500 OR PHENOBARBITAL AND BETA-NAPHTHOFLAVONE, Method: PREINCUBATION): active; positive | mutagenic call (Test System: AMES SALMONELLA TYPHIMURIUM, Strain/Indicator: TA100, Metabolic Activation: HAMSTER, LIVER, S-9, AROCLOR 1254 (30%), Method: PREINCUBATION): active; positive | mutagenic call (Test System: AMES SALMONELLA TYPHIMURIUM, Strain/Indicator: TA100, Metabolic Activation: NONE, Method: PREINCUBATION): inactive; negative | mutagenic call [3]: inactive; negative | mutagenic call (Test System: AMES SALMONELLA TYPHIMURIUM, Strain/Indicator: TA100, Metabolic Activation: RAT, LIVER, S-9, AROCLOR 1254 (10%) (WITHOUT ADDED COFACTORS), Method: STANDARD PLATE): inactive; negative | mutagenic call (Test System: AMES SALMONELLA TYPHIMURIUM, Strain/Indicator: TA100, Metabolic Activation: RAT, LIVER, S-9, AROCLOR 1254 (30%), Method: PREINCUBATION): active; positive | mutagenic call [4]: active; positive | mutagenic call (Test System: AMES SALMONELLA TYPHIMURIUM, Strain/Indicator: TA100, Metabolic Activation: RAT, LIVER, S-9, AROCLOR (10%), Method: STANDARD PLATE): active; positive | mutagenic call (Test System: AMES SALMONELLA TYPHIMURIUM, Strain/Indicator: TA100, Metabolic Activation: RAT, LIVER, S-9, KANECHLOR 500 OR PHENOBARBITAL AND BETA-NAPHTHOFLAVONE, Method: PREINCUBATION): active; positive | mutagenic call (Test System: AMES SALMONELLA TYPHIMURIUM, Strain/Indicator: TA100, Metabolic Activation: RAT, LIVER, S-9, KC500 OR PHENOBARBITAL, Method: LIQUID SUSPENSION): active; positive | mutagenic call (Test System: AMES SALMONELLA TYPHIMURIUM, Strain/Indicator: TA100, Metabolic Activation: RAT, LIVER, S-9, TCDD, Method: STANDARD PLATE): active; positive | mutagenic call (Test System: AMES SALMONELLA TYPHIMURIUM, Strain/Indicator: TA100, Metabolic Activation: S-9, Method: FLUCTUATION TEST): active; positive | mutagenic call [5]: active; positive | mutagenic call (Test System: AMES SALMONELLA TYPHIMURIUM, Strain/Indicator: TA1535, Metabolic Activation: RAT, LIVER, S-9, AROCLOR (10%), Method: STANDARD PLATE): active; positive | mutagenic call (Test System: AMES SALMONELLA TYPHIMURIUM, Strain/Indicator: TA1535, Metabolic Activation: RAT, LIVER, S-9, PHENOBARBITAL, Method: STANDARD PLATE): active; positive | mutagenic call (Test System: AMES SALMONELLA TYPHIMURIUM, Strain/Indicator: YG1024, Metabolic Activation: PLANT CELLS, Method: PREINCUBATION): inactive; negative | mutagenic call (Test System: CHINESE HAMSTER V-79, Strain/Indicator: V-79/6-THIOGUANINE, Metabolic Activation: NONE, Method: SUSPENSION/PLATE): inactive; negative | mutagenic call (Test System: CHINESE HAMSTER V-79, Strain/Indicator: V-79/6-THIOGUANINE, Metabolic Activation: RAT, LIVER, S-9, PHENOBARBITAL AND BETA-NAPHTHOFLAVONE, Method: SUSPENSION/PLATE): active; positive | mutagenic call (Test System: E. COLI, Strain/Indicator: WP2 UVRA, Metabolic Activation: HAMSTER, LIVER, S-9, AROCLOR 1254, Method: STANDARD PLATE): inactive; negative | mutagenic call (Test System: E. COLI, Strain/Indicator: WP2 UVRA, Metabolic Activation: HAMSTER, LIVER, S-9, Method: STANDARD PLATE): inactive; negative | mutagenic call (Test System: E. COLI, Strain/Indicator: WP2 UVRA, Metabolic Activation: MOUSE, LIVER, S-9, AROCLOR 1254, Method: STANDARD PLATE): inactive; negative | mutagenic call (Test System: E. COLI, Strain/Indicator: WP2 UVRA, Metabolic Activation: MOUSE, LIVER, S-9, Method: STANDARD PLATE): inactive; negative | mutagenic call (Test System: E. COLI, Strain/Indicator: WP2 UVRA, Metabolic Activation: NONE, Method: STANDARD PLATE): inactive; negative | mutagenic call (Test System: E. COLI, Strain/Indicator: WP2 UVRA, Metabolic Activation: RAT, LIVER, S-9, AROCLOR 1254, Method: STANDARD PLATE): inactive; negative | mutagenic call (Test System: E. COLI, Strain/Indicator: WP2 UVRA, Metabolic Activation: RAT, LIVER, S-9, Method: STANDARD PLATE): inactive; negative

— PubChem BioAssay AID1259407 (Chemical Carcinogenesis Research Information System (CCRIS), 2018)
